The test system of the assay is HCV replicon. The assay can be described thus: Replicon based assay of HCV replication inhibition (NPT ELISA). The format is cell-based, Hepatitis C virus. The following applies: Hepatitis C virus, replicon based assay of HCV replication inhibition; Table IV; read-out: Activity. The method, boiled down: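 NPT (neomycin phosphotransferase) content, proportional to replicon replication, quantified by capture ELISA on day four. Before that, replicon-bearing Huh-7 cells in G418-free screening medium were exposed three days at 37° C to compound, typically six doses from 10 to 0.03 micromolar, with equal DMSO across wells.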
Take `Cc1ccc2nc(Nc3nc(-c4cccnc4)cs3)sc2c1` [compound 794, 6-methyl-N-(4-(pyridin-3-yl)thiazol-2-yl)benzo[d]thiazol-2-amine]: the EC50 is greater than 10000 nM.
With `CCCCOC(=O)c1n[nH]c(Nc2nc(-c3cccnc3)cs2)n1` [compound 795, butyl 5-(4-(pyridin-3-yl)thiazol-2-ylamino)-1H-1,2,4-triazole-3-carboxylate], the EC50 was greater than 10000 nM.
For `c1ccc(-c2nsc(Nc3nc(-c4cccnc4)cs3)n2)cc1` [compound 796, 3-phenyl-N-(4-(pyridin-3-yl)thiazol-2-yl)-1,2,4-thiadiazol-5-amine] the value was greater than 10000 nM.
The value for `CC(C)(C)c1csc(Nc2nc(-c3cccnc3)cs2)n1` [compound 797, 4-tert-butyl-N-(4-(pyridin-3-yl)thiazol-2-yl)thiazol-2-amine] was greater than 10000 nM; that for `FC(F)(F)c1cc(Nc2nc(-c3cccnc3)cs2)ccc1OCCCCc1cccs1` [compound 799, N-(4-(4-(thiophen-2-yl)butoxy)-3-(trifluoromethyl)phenyl)-4-(pyridin-3-yl)thiazol-2-amine] was less than 1000 nM; that for `FC(F)(F)c1cc(Nc2nc(-c3cccnc3)cs2)ccc1OCCCc1cccnc1` [compound 800, N-(4-(3-(pyridin-3-yl)propoxy)-3-(trifluoromethyl)phenyl)-4-(pyridin-3-yl)thiazol-2-amine] was less than 1000 nM.
The value for `CCCCCCCCOc1ccc(Nc2nc(C3=CSC4=NC(=O)CN34)cs2)cc1C(F)(F)F` [compound 801, 3-(2-(3-(trifluoromethyl)-4-(octyloxy)phenylamino)thiazol-4-yl)imidazo[2,1-b]thiazol-6(SH)-one] was less than 1000 nM; that for `CN(CCOc1ccc(Nc2nc(-c3cccnc3)cs2)cc1C(F)(F)F)c1ccccc1` [compound 802] was less than 1000 nM; that for `COc1ncc(-c2csc(Nc3ccc(OCCCC4CCCC4)c(C(F)(F)F)c3)n2)cn1` [compound 803, N-(4-(3-cyclopentylpropoxy)-3-(trifluoromethyl)phenyl)-4-(2-methoxypyrimidin-5-yl)thiazol-2-amine] was less than 1000 nM.
Turning to `FC(F)(F)c1cc(Nc2nc(-c3cccnc3)cs2)ccc1OCCCCc1ccccc1` [compound 804, N-(4-(4-phenylbutoxy)-3-(trifluoromethyl)phenyl)-4-(pyridin-3-yl)thiazol-2-amine], the EC50 was less than 1000 nM.
For `Cc1ccc(CCCCOc2ccc(Nc3nc(-c4cccnc4)cs3)cc2C(F)(F)F)cc1` [compound 805, N-(4-(4-p-tolylbutoxy)-3-(trifluoromethyl)phenyl)-4-(pyridin-3-yl)thiazol-2-amine] the value was 1000 to 10000 nM.
For `Fc1ccc(-c2csc(Nc3ccc(OCCCc4cccnc4)c(C(F)(F)F)c3)n2)cc1` [compound 806, N-(4-(3-(pyridin-3-yl)propoxy)-3-(trifluoromethyl)phenyl)-4-(4-fluorophenyl)thiazol-2-amine] the value was 1000 to 10000 nM.
For `CCCCCCCCOc1ccc(Nc2nc(-c3csc4nccn34)cs2)cc1C(F)(F)F` [compound 807, N-(3-(trifluoromethyl)-4-(octyloxy)phenyl)-4-(imidazo[2,1-b]thiazol-3-yl)thiazol-2-amine] the value was less than 1000 nM.
With `CCCCCCCCOc1ccc(Nc2nc(C(=O)CSC3=NC(=O)CC(=O)N3)cs2)cc1C(F)(F)F` [compound 808, 2-(2-(2-(3-(trifluoromethyl)-4-(octyloxy)phenylamino)thiazol-4-yl)-2-oxoethylthio)pyrimidine-4,6(1H,5H)-dione], the EC50 was less than 1000 nM.
The value for `CCCCCCCCOc1ccc(Nc2nc(-c3c[nH]nc3C#N)cs2)cc1C(F)(F)F` [compound 809, 4-(2-(3-(trifluoromethyl)-4-(octyloxy)phenylamino)thiazol-4-yl)-1H-pyrazole-3-carbonitrile] was less than 1000 nM; that for `CCCCCCCCOc1ccc(Nc2nc(-c3cnc(N)nc3)cs2)cc1C(F)(F)F` [compound 810, 5-(2-(3-(trifluoromethyl)-4-(octyloxy)phenylamino)thiazol-4-yl)pyrimidin-2-amine] was less than 1000 nM.
The value for `CCCCCCCCOc1ccc(Nc2nc(-c3cnc[nH]3)cs2)cc1C(F)(F)F` [compound 811, N-(3-(trifluoromethyl)-4-(octyloxy)phenyl)-4-(1H-imidazol-5-yl)thiazol-2-amine] was less than 1000 nM; that for `CCCCCCCCOc1ccc(Nc2nc(-c3ccsc3Cl)cs2)cc1C(F)(F)F` [compound 812, 4-(2-chlorothiophen-3-yl)-N-(3-(trifluoromethyl)-4-(octyloxy)phenyl)thiazol-2-amine] was less than 1000 nM.
For `CCCCCCCCOc1ccc(Nc2nc(-c3cccnc3C#N)cs2)cc1C(F)(F)F` [compound 813, 3-(2-(3-(trifluoromethyl)-4-(octyloxy)phenylamino)thiazol-4-yl)pyridine-2-carbonitrile] the value was less than 1000 nM; for `CCCCCCCCOc1ccc(Nc2nc(-c3cccnc3C(N)=O)cs2)cc1C(F)(F)F` [compound 814, 3-(2-(3-(trifluoromethyl)-4-(octyloxy)phenylamino)thiazol-4-yl)pyridine-2-carboxamide], 1000 to 10000 nM.
In the case of `c1cncc(-c2csc(Nc3nc(-c4ccc5ccccc5c4)cs3)n2)c1` [compound 815, 4-(naphthalen-2-yl)-N-(4-(pyridin-3-yl)thiazol-2-yl)thiazol-2-amine], the EC50 lay in the range of 1000 to 10000 nM.
In the case of `COc1ccc(Nc2nc(-c3cccnc3)cs2)cc1S(=O)(=O)Nc1ccc(Cl)cc1` [compound 818], the EC50 was greater than 10000 nM.
The value for `CCN(CC)S(=O)(=O)c1cc(Nc2nc(-c3cccnc3)cs2)ccc1Cl` [compound 819] was greater than 10000 nM; that for `CCN(CC)C(=O)c1ccc(Nc2nc(-c3cccnc3)cs2)cc1` [compound 820, 4-(4-(pyridin-3-yl)thiazol-2-ylamino)-N,N-diethylbenzamide] was greater than 10000 nM.
For `CN(C)C(=O)c1ccc(Nc2nc(-c3cccnc3)cs2)cc1` [compound 821, 4-(4-(pyridin-3-yl)thiazol-2-ylamino)-N,N-dimethylbenzamide] the value was greater than 10000 nM; for `CCCCCCC=Cc1ccc(Nc2nc(-c3cccnc3)cs2)cc1C(F)(F)F` [compound 822, N-(3-(trifluoromethyl)-4-(oct-1-enyl)phenyl)-4-(pyridin-3-yl)thiazol-2-amine], less than 1000 nM.
The value for `CCCCCCCOc1ccc(Nc2nc(-c3cccnc3)cs2)cc1C(F)(F)F` [compound 823, N-(3-(trifluoromethyl)-4-(heptyloxy)phenyl)-4-(pyridin-3-yl)thiazol-2-amine] was less than 1000 nM.
`CC(C)CCCOc1ccc(Nc2nc(-c3cccnc3)cs2)cc1C(F)(F)F` [compound 824, N-(4-(4-methylpentyloxy)-3-(trifluoromethyl)phenyl)-4-(pyridin-3-yl)thiazol-2-amine]: the EC50 was less than 1000 nM.
The value for `CCCCCCCCc1ccc(Nc2nc(-c3cccnc3)cs2)cc1C(F)(F)F` [compound 825, N-(3-(trifluoromethyl)-4-octylphenyl)-4-(pyridin-3-yl)thiazol-2-amine] was less than 1000 nM; that for `CCCCCCCCc1ccc(Nc2nc(-c3cnc(OC)nc3)cs2)cc1C(F)(F)F` [compound 826, N-(3-(trifluoromethyl)-4-octylphenyl)-4-(2-methoxypyrimidin-5-yl)thiazol-2-amine] was less than 1000 nM.
